PMC7031696 (Cell chemical biology, 2019)
Read-outs that look alike come from different tables or passages of the source.

Tests used:
[1] = tested on: Plasmodium falciparum 3D7-A10 parasites; assay: Stage specificity assay (8-h exposure of synchronized stages, IC50^8h); format: cell-based; details: for IC50: Plasmodium falciparum
[2] = tested on: asynchronous 3D7-A10 parasite cultures; assay: Standard 72-h exposure asexual blood stage susceptibility assay (IC50^72h); format: cell-based, Plasmodium falciparum; details: Plasmodium falciparum, 3D7, 72 h, read-out: Overall (72hr assay) Mean IC50 (IC50^72h)
[3] = tested on: 3D7-MR4 trophozoite parasite-infected RBCs; assay: Metabolomic profiling (hydrophilic metabolite changes, UHPLC-MS); format: cell-based, Plasmodium falciparum

Ratio lowest IC50 8hr/IC50 72hr ([1]; 3D7-A10): 3.9
IC50 ([1]; 3D7, read-out: Early rings Mean IC50, shift 2, 8-h exposure 0–8 hr, line 'shift 2'): 16.3 µM
IC50 ([1]; 3D7, read-out: Early trophozoites Mean IC50, shift 2, 8-h exposure 16–24 hr, line 'shift 2' of biphasic dose response): 5.14 µM
IC50 ([1]; 3D7, read-out: Late rings Mean IC50, shift 2, 8-h exposure 8–16 hr, line 'shift 2'): 14 µM
IC50 ([1]; 3D7, read-out: Late trophozoites Mean IC50, shift 1, 8-h exposure 24–32 hr, line 'shift 1' of biphasic dose response): 0.161 µM
IC50 ([1]; 3D7, read-out: Late trophozoites Mean IC50, shift 2, 8-h exposure 24–32 hr, line 'shift 2' of biphasic dose response): 13.4 µM
IC50 ([1]; 3D7, read-out: Schizonts Mean IC50, shift 2, 8-h exposure 32–40 hr, line 'shift 2'): 0.0462 µM
IC50 [2]: 0.0118 µM
SMILES: CN(C(=O)c1cn2c(-c3ccc(C(F)(F)F)cc3)cnc2cn1)c1ccc(C#N)cc1 [KAI407, reference compound]
overall activity profile (stages on which active) ([1]; 8-h exposures): activity against only schizonts
Stage of peak activity (Figure 6) ([1]; period when the parasite was most susceptible (lowest IC50^8h)): schizonts
Log2(fold changes) 3-phosphoglycerate ([3]; metabolite 3-phosphoglycerate, log2 fold change): -0.5235
Log2(fold changes) 4-Pyridoxic acid ([3]; metabolite 4-Pyridoxic acid, log2 fold change): 0.0000
Log2(fold changes) 4-aminobutyrate ([3]; metabolite 4-aminobutyrate, log2 fold change): -0.0697
Log2(fold changes) 4-phosphopantetheine ([3]; metabolite 4-phosphopantetheine, log2 fold change): -0.3259
Log2(fold changes) 4-phosphopantothenate ([3]; metabolite 4-phosphopantothenate, log2 fold change): -0.0998
Log2(fold changes) 5-aminopentanoic acid ([3]; metabolite 5-aminopentanoic acid, log2 fold change): 0.0000
Log2(fold changes) 5-methyl-THF ([3]; metabolite 5-methyl-THF, log2 fold change): 0.0000
Log2(fold changes) 5-phosphoribosyl-1-pyrophosphate ([3]; metabolite 5-phosphoribosyl-1-pyrophosphate, log2 fold change): 0.0000
Log2(fold changes) 6-phospho-D-gluconate ([3]; metabolite 6-phospho-D-gluconate, log2 fold change): -0.0493
Log2(fold change) HVDD ([3]; metabolite HVDD): 0.0000
Log2(fold change) Hydroxyisocaproic acid ([3]; metabolite Hydroxyisocaproic acid): 0.0000
Log2(fold change) IDP ([3]; metabolite IDP): -0.1372
Log2(fold change) IMP ([3]; metabolite IMP): 0.0398
Log2(fold change) Inositol ([3]; metabolite Inositol): 0.0000
Log2(fold change) Isopentyl-PP ([3]; metabolite Isopentyl-PP): 0.0000
Log2(fold change) L-arginino-succinate ([3]; metabolite L-arginino-succinate): 0.0109
Log2(fold change) LD ([3]; metabolite LD): 0.0079
Log2(fold change) Myristoyl/tetradecanoyl-CoA ([3]; metabolite Myristoyl/tetradecanoyl-CoA): 0.0000
Log2(fold change) N-Acetyl-L-alanine ([3]; metabolite N-Acetyl-L-alanine): 0.0065
Log2(fold change) N-acetyl-L-ornithine ([3]; metabolite N-acetyl-L-ornithine): -0.3674
Log2(fold change) N-acetyl-glucosamine-1/6-phosphate ([3]; metabolite N-acetyl-glucosamine-1/6-phosphate): -0.2974
Log2(fold change) N-acetyl-glutamate ([3]; metabolite N-acetyl-glutamate): -0.1156
Log2(fold change) N-acetyl-glutamine ([3]; metabolite N-acetyl-glutamine): -0.4039
Log2(fold change) N-carbamoyl-L-aspartate ([3]; metabolite N-carbamoyl-L-aspartate): -0.0890
Log2(fold change) NAD+ ([3]; metabolite NAD+): -0.0062
Log2(fold change) NADH ([3]; metabolite NADH): 0.3557
Log2(fold change) NADP+ ([3]; metabolite NADP+): 0.1126
Log2(fold change) NADPH ([3]; metabolite NADPH): 0.1591
Log2(fold change) O-acetyl-L-serine ([3]; metabolite O-acetyl-L-serine): 0.0000
Log2(fold change) Octoluse 8/1P ([3]; metabolite Octoluse 8/1P): -0.0134
Log2(fold change) Octoluse Bisphosphate ([3]; metabolite Octoluse Bisphosphate): -0.3290
Log2(fold change) PD ([3]; metabolite PD): -0.6855
Log2(fold change) PE ([3]; metabolite PE): -0.6905
Log2(fold change) PEE ([3]; metabolite PEE): -0.7885
Log2(fold change) PEEK ([3]; metabolite PEEK): -0.8519
Log2(fold change) PVNF ([3]; metabolite PVNF): -0.9231
Log2(fold change) Pyroglutamic acid ([3]; metabolite Pyroglutamic acid): -0.1373
Log2(fold change) Pyrophosphate ([3]; metabolite Pyrophosphate): 0.0000
Log2(fold change) Ribose-5-phosphate ([3]; metabolite Ribose-5-phosphate): -0.3312
Log2(fold change) S-adenosyl-L-homocysteine ([3]; metabolite S-adenosyl-L-homocysteine): -0.0194
Log2(fold change) S-adenosyl-L-methioninamine ([3]; metabolite S-adenosyl-L-methioninamine): 0.0000
Log2(fold change) S-adenosyl-L-methionine ([3]; metabolite S-adenosyl-L-methionine): 0.0000
Log2(fold change) S-methyl-5'-thioadenosine ([3]; metabolite S-methyl-5'-thioadenosine): 0.0000
Log2(fold change) SD ([3]; metabolite SD): -0.4923
Log2(fold change) SDL ([3]; metabolite SDL): 0.0000
Log2(fold change) SID ([3]; metabolite SID): 0.0000
Log2(fold change) Sedoheptulose bisphosphate ([3]; metabolite Sedoheptulose bisphosphate): -0.3584
Log2(fold change) Thiamine pyrophosphate ([3]; metabolite Thiamine pyrophosphate): 0.0000
Log2(fold changes) UDP-D-glucose ([3]; metabolite UDP-D-glucose, log2 fold change): 0.1494
Log2(fold changes) UDP-D-glucuronate ([3]; metabolite UDP-D-glucuronate, log2 fold change): 0.0070
Log2(fold changes) UDP-N-acetyl-glucosamine ([3]; metabolite UDP-N-acetyl-glucosamine, log2 fold change): 0.1156
Log2(fold changes) UDP ([3]; metabolite UDP, log2 fold change): 0.2283
Log2(fold changes) UMP ([3]; metabolite UMP, log2 fold change): 0.2317
Log2(fold changes) UTP ([3]; metabolite UTP, log2 fold change): 0.2213
Log2(fold change) hydroxyphenylpyruvate ([3]; metabolite hydroxyphenylpyruvate): 0.0000
Log2(fold change) hydroxyproline/Aminolevulinate ([3]; metabolite hydroxyproline/Aminolevulinate): -0.0075
Log2(fold change) hypoxanthine ([3]; metabolite hypoxanthine): 0.1648
Log2(fold change) indole ([3]; metabolite indole): 0.3490
Log2(fold change) inosine ([3]; metabolite inosine): -0.0766
Log2(fold change) isoleucine ([3]; metabolite isoleucine): 0.0000
Log2(fold change) lactate ([3]; metabolite lactate): -0.2025
Log2(fold change) leucine ([3]; metabolite leucine): 0.0000
Log2(fold change) lysine ([3]; metabolite lysine): -0.5734
Log2(fold change) malate ([3]; metabolite malate): -0.3950
Log2(fold change) maleic acid ([3]; metabolite maleic acid): -0.3624
Log2(fold change) methionine ([3]; metabolite methionine): 0.0256
Log2(fold change) myo-inositol ([3]; metabolite myo-inositol): -0.1977
Log2(fold change) nicotinamide mononucleotide ([3]; metabolite nicotinamide mononucleotide): 0.0000
Log2(fold change) nicotinate ([3]; metabolite nicotinate): -0.1013
Log2(fold change) ornithine ([3]; metabolite ornithine): -0.1781
Log2(fold change) orotate ([3]; metabolite orotate): 0.2133
Log2(fold change) orotidine-5'-phosphate ([3]; metabolite orotidine-5'-phosphate): 0.1629
Log2(fold change) oxaloacetate ([3]; metabolite oxaloacetate): 0.0000
Log2(fold change) p-aminobenzoate ([3]; metabolite p-aminobenzoate): -0.0216
Log2(fold change) p-hydroxybenzoate ([3]; metabolite p-hydroxybenzoate): 0.3646
Log2(fold change) pantothenate ([3]; metabolite pantothenate): -0.2828
Log2(fold change) phenylalanine ([3]; metabolite phenylalanine): -0.1837
Log2(fold change) phenylpyruvate ([3]; metabolite phenylpyruvate): 0.0000
Log2(fold change) phosphoenolpyruvate ([3]; metabolite phosphoenolpyruvate): -0.3146
Log2(fold change) prephenate ([3]; metabolite prephenate): -0.3616
Log2(fold change) proline ([3]; metabolite proline): -0.1191
Log2(fold change) pyridoxine ([3]; metabolite pyridoxine): -0.0925
Log2(fold change) pyruvate ([3]; metabolite pyruvate): -0.4635
Log2(fold change) riboflavin ([3]; metabolite riboflavin): 0.1454
Log2(fold change) ribose ([3]; metabolite ribose): 0.2742
Log2(fold change) ribose-phosphate ([3]; metabolite ribose-phosphate): 0.0000
Log2(fold change) ribulose-5-phosphate ([3]; metabolite ribulose-5-phosphate): 0.0000
Log2(fold change) serine ([3]; metabolite serine): 0.1757
Log2(fold change) sn-glycerol-3-phosphate ([3]; metabolite sn-glycerol-3-phosphate): -0.3504
Log2(fold change) succinate/Methylmalonic acid ([3]; metabolite succinate/Methylmalonic acid): -0.0586
Log2(fold change) succinyl-CoA/methylmalonyl-CoA ([3]; metabolite succinyl-CoA/methylmalonyl-CoA): 0.0000
Log2(fold change) taurine ([3]; metabolite taurine): 0.0000
Log2(fold change) thiamine ([3]; metabolite thiamine): -0.0019
Log2(fold change) threonine/homoserine ([3]; metabolite threonine/homoserine): -0.0036
Log2(fold change) thymidine ([3]; metabolite thymidine): 0.0000
Log2(fold changes) thymine ([3]; metabolite thymine, log2 fold change): 0.0000
Log2(fold changes) trehalose-6-Phosphate ([3]; metabolite trehalose-6-Phosphate, log2 fold change): 0.0000
Log2(fold changes) tryptophan ([3]; metabolite tryptophan, log2 fold change): -0.0140
Log2(fold changes) tyrosine ([3]; metabolite tyrosine, log2 fold change): 0.0814
Log2(fold changes) uridine ([3]; metabolite uridine, log2 fold change): 0.2403
